Tests used:
Type in all cases: in vivo, Nicotiana tabaccum cv. W38
[1] = test system: sporamin promoter fused to the GUS reporter gene; assay: Pspoa-GUS activity in response to elicitors sprayed onto leaves (fluorometric GUS assay); details: for effect on the sporamin promoter function (in words): treatment alone
Protocol: The plasmid was transformed into tobacco cells (Nicotiana tabaccum cv. W38) using Agrobacterium tumefaciens LBA4404 in the leaf disc method (Hörsch et al. (1985). Science 227:1229–1231). […] Two lines, Tspoa11 and Tspoa37 were selected for further analysis. GUS activity was measured in the leaves of plants obtained from these lines as follows. A middle leaf of the mature tobacco plant was injured with a scissors. Two hours later, wounded and unwounded leaves were harvested, mixed with GUS extraction buffer (50 mM sodium phosphate, pH 7.0, 10 mM EDTA, 10 mM β-mercaptoethanol, 0.1% sodium lauryl sarcosine, 0.1% Triton X-100), frozen, and grounded into a fine powder with a mortar and pestle while in liquid nitrogen. The sample was thawed and centrifuged at 12,000×g for 10 minutes at 4° C. The total protein content was determined using the method of Bradford ((1976) Anal. Biochem. 72:248–254). GUS activity was measured in a fluorometric assay by the addition of 4-methylumbelliferyl-β-D-glucuronide substrate and monitoring the reaction in a […] to determine […] of activity following the method of Jefferson ((1987) EMBO J 6:3901–3908).
The activity the Pspoa-GUS fusion was monitored in response to spraying with the elicitor, methyl jasmonate. Solutions of 50 μM and 100 μM methyl jasmonate were prepared and sprayed onto leaves using a commercial atomizer. Sodium phosphate buffer, pH 7.0, was used as a control solution.
The activity of the sporamin promoter fused to the GUS reporter gene was monitored in response to abscisic acid (ABA). Solutions of 100 μM and 200 μM ABA were prepared and sprayed onto leaves using a commercial atomizer.

[2] = test system: sporamin promoter fused to the GUS reporter gene; assay: as above; details: 1 mM sprayed onto leaves of Pspoa-GUS tobacco
[3] = test system: GUS reporter gene; assay: Pspoa-GUS activity in response to leaf wounding (fluorometric GUS assay)
Description: To analyze the properties of the sporamin promoter, the promoter was operably linked to the reporter gene β-glucuronidase (GUS). The plasmid pBI101 is a Ti plasmid binary vector harboring the GUS gene in a form lacking a promoter (Clontech, Palo Alto Calif.). The sporamin promoter was excised with the restriction endonucleases XbaI and BamHI, isolated, and ligated into compatible sites of a restricted pBI101 nucleic acid. The resulting plasmid construct, termed pBI101/Pspoa, was verified by restriction mapping and nucleic acid sequencing.
Two lines, Tspoa11 and Tspoa37 were selected for further analysis. GUS activity was measured in the leaves of plants obtained from these lines as follows. A middle leaf of the mature tobacco plant was injured with a scissors. Two hours later, wounded and unwounded leaves were harvested, mixed with GUS extraction buffer (50 mM sodium phosphate, pH 7.0, 10 mM EDTA, 10 mM β-mercaptoethanol, 0.1% sodium lauryl sarcosine, 0.1% Triton X-100), frozen, and grounded into a fine powder with a mortar and pestle while in liquid nitrogen. The sample was thawed and centrifuged at 12,000×g for 10 minutes at 4° C.
GUS activity was monitored as described above at various intervals after leaf wounding.

[4] = 100 μM sprayed onto leaves of Pspoa-GUS tobacco
[5] = 200 μM sprayed onto leaves of Pspoa-GUS tobacco

Q: For `C=C` [ethylene], which “effect on the sporamin promoter function (in words)” value [1] is on record?
A: The value was “no effect”.

Q: How did the GUS activity [1, 4] turn out when `CC1=CC(=O)CC(C)(C)[C@@]1(O)/C=C/C(C)=C\C(=O)O` [ABA, abscisic acid] was run?
A: Its GUS activity is 170 nmole MU/min/mg protein.

Q: And the “induction of the sporamin promoter (in words)” value ([1]; 100 μM, fluorometric assay)?
A: Its value is “potent inducer”.

Q: What about the GUS activity [1, 5] of the same molecule?
A: Its GUS activity is 60 nmole MU/min/mg protein.

Q: For `CC/C=C\CC1C(=O)CCC1CC(=O)OC` (stereo not shown) [methyl jasmonate], which GUS activity ([1]; 50 μM sprayed onto leaves of Pspoa-GUS tobacco) is on record?
A: Its GUS activity is 420 nmole MU/min/mg protein.

Q: And the GUS activity [1, 4]?
A: Its GUS activity is 225 nmole MU/min/mg protein.

Q: What about the GUS activity increase ([1]; two hours after spraying with 50 μM) of the same molecule?
A: Its GUS activity increase is 37 fold.

Q: And the GUS activity increase ([1]; two hours after spraying with 100 μM)?
A: The GUS activity increase was 20 fold.

Q: With `O=C(O)c1ccccc1O` [SA, salicylic acid] as the molecule, how does the GUS activity [2] read?
A: Its GUS activity is 21 nmole MU/min/mg protein.

Q: What about the GUS activity [1, 5] of the same molecule?
A: Its GUS activity is 15 nmole MU/min/mg protein.

Q: What about the “sporamin promoter activity when treatment precedes wounding or methyl jasmonate treatment (in words)” value ([1]; pre-treatment before wounding / methyl jasmonate) of the same molecule?
A: The value was “less sporamin promoter activity was observed”.

Q: What about the “effect on the sporamin promoter function (in words)” value [1] of the same molecule?
A: The value was “no effect”.

B1: sporamin promoter: 1.25 kb sweet potato (Ipomoea batatas) sporamin promoter sequence, SEQ ID NO:1 (nucleic acid)
DNA: CGACGGCCCGGGCTAGGTCAAGTAACCCGAACTTGGTCAAGTTTGTTATAACTTATTCTCCCTTTTTCGTGAGGGCGGTTAGGGGACTTAGTATAAATAGGAGTGTAATCGGGCTTGTTAAGACATATTGAACTCACCTGTAATAGCATTACATTTCTCGTAAATACGTACAATATCCTTGTCTTTCCAATAACATTTTTGTCTTTTACCATTATCTTTTATCCAATCCTTTAATTATCGAGTTTGTTAATTCAGATCACCCAAATTAATTAAATCCATCATTTGGATTAAGTTATCTTACTTTACTAATTAGAGTTTTTATCTTCAGAGGAAGGAAGAAGAAAATTAATTGACATGACTCTCATCGGGTTGCACTCCACCCATTATGTTATACAATGCAAACTCTTTTAAAATAAATTAAAATTATATATATATATAATAGTGCAACCTACATCACTTTTTCAATGTGGGACGAAAGCACCTTCAAAAGTCTTTCGAACCCCATTTTTCCTCGAATATATTTTGAGAATCAATTTCTCAATTAATCATTATTATCCATCTTCGTGTACATATATAATATATATATCACATTAAACATCTAACTTAGAAGAACTCAAATTTATTTTTAACTCTACTTATATCAAAAGTGGACTCTACTGAAAATTATACCACAAAATGATATTTTAAACGTTATATTTAACAAAAATTTCTGACATTATCTTATTTAATCTTCTACTAGTTAGAATAATAAAACAAATTTCACTCATAACATAAATTTAAATAGTGATCGTGAATTTTTACGGAAATTAATCAAATAATTGTATGTAATAATGTAATGTAATGAATTTTGATGATGGGTAAAATGTATTTTAATTATTACACGACTTGCCTTCTTTAATTTGTTCTTAGGATCCTAGACTTCATCCCTGCATAGCAAAACCATTGGACACTTGGACGGCCACAAATCATTTCTATTTTCTCCCAACTCCTCCTGTCAGCATGGGATCATTATCAACTTTATCTCATCCCATTACACACCGTAAGTGTACCATCCATCGCTCAATCACTGTATACTTAAATCTCCAGATTAAGTCACTAAATAACTGTGTTGGACTGTGAAAACTTTGAGTAAAAAAAGGCAAAATACTCTTAAAACTGTACAAAAAACAATAATTCAACCCTTACTCTTGTTGTCTATAAATTGGATGCATGAGAGCTCAACACAACACAACACCACCAACAAATTAAACATCATTACCTCTTAGCTTTTCTCCCAAGTTGTC
modifications: Ipomoea batatas
Q: B1 was tested. Which “time GUS expression remained above 250 nmole MU/min/mg after wounding” value ([3]; leaf wounding) did it give?
A: Its value is “at least 50 hours”.

Q: And the “time to induction of GUS expression after wounding” value ([3]; leaf wounding)?
A: Its value is no more than 15 min.

Q: And the “maximum GUS expression level over the uninduced (unwounded) level” value ([3]; maximum at 12 hours after wounding)?
A: The value was 16 fold.

Q: What about the “level of GUS expression after leaf wounding” value ([3]; within 2 hours of wounding) of the same molecule?
A: Its value is “over 250 nmole MU/min/mg of protein”.

Reference: US7041815B2, “Sporamin promoter and uses thereof” (Sinon Corporation, priority 2001, dated 2006)
